Measurements published in US6265450A, “Anti-stress composition” (Suntory Limited, priority 1995, dated 2001).
Read-outs that look alike come from different tables or passages of the source.

Tests used:
antibody production = conditions: cited from earlier work
P815 mastocytoma = experiment: Effect of restraint stress on promotion of cancer metastasis (transplanted nodes on liver surface); assay type: in vivo, male DBA/2 mice; conditions: Roche synthetic astaxanthin, 1 mg/kg by gavage three times in MCT; 16 days after transplantation; FIG. 7
Method: 7 week old, male DBA/2 mice were purchased from Japan Clea Co., Ltd., and after housing on a preliminary basis for 1 week in a specific pathogen free (SPF) atmosphere, the animals were used in the experiment at age 8 weeks.
The experimental mice were divided into three groups consisting of a restraint stress non-loaded control group (8 mice), a restraint stress loaded control group (8 mice) and a restraint stress loaded astaxanthin group (9 mice). Astaxanthin was administered orally by gavage three times on the day before restraint, immediately after the start of restraint and the day after the start of restraint at a dose of 1 mg/kg (MCT solution) each. Roche astaxanthin, a synthetic form of astaxanthin, was used for the test substance, while the control groups were orally administered MCT only three times by gavage. Restraint stress loading was performed under the same conditions as Example 1.
Mastocytoma subcultured in the abdominal cavities of DBA/2 mice in this laboratory was used for the P815 mastocytoma (DBA/2 mouse cutaneous mastocytoma). 1×10^4 cells/animal were transplanted into the caudal vein of each animal. […] The liver was excised 16 days after transplantation and after Vaughn's fixation, the number of transplanted nodes on the liver surface was measured.

cancer cell = conditions: cited from earlier work
thymus weight = experiment: Effect of restraint stress on decreased thymus weight; assay type: in vivo, male C57BL/6 mice; conditions: Astaxanthin (Roche) in MCT; for minimal effective dose: Mus musculus, po
From the text: Six week old, male C57BL/6 mice were purchased from Japan Clea Co., Ltd., and after preliminarily keeping for 1 week in an SPF (specific pathogen free) environment, were used in the experiment at age 7 weeks.
The mice were divided into a restrained group (16 mice) and a non-restrained group (5 mice). The unrestrained group was used as a control group. The restrained group was further divided into 4 groups of 4 mice each, and designated as the restrained control group, vitamin E group, β-carotene group and astaxanthin group. The restrained groups were restrained for 20 hours in metal restraint cages under conditions of minimal body movement and access to drinking water to induce restraint stress.
ASTAX 5000 manufactured by Itano Refrigated Food Co., Ltd. (containing 3.57% astaxanthin diester and 1.53% astaxanthin monoester), extracted and purified from krill, was used for astaxanthin. ASTAX 5000 was dissolved in medium chain fatty acid triglyceride (MCT) to a concentration of 100 mg/10 ml as astaxanthin content and used as the test substance solution. Vitamin E and β-carotene were dissolved in MCT, and MCT only was administered to the control group. The test substances were given orally three times on the day before restraint, immediately after restraint, and on the day after restraint at a dose of 100 mg/kg, for each test substance.
The mice were sacrificed by dislocation of the cervical vertebra 48 hours after the start of restraint. The thymus gland was excised and weighed.
Astaxanthin (Roche) was dissolved in MCT to astaxanthin concentrations of 0.04 mg/10 ml, 0.2 mg/10 ml, 1.0 mg/10 ml and 5.0 mg/10 ml to prepare the test substance solutions.
Thymus weight and spleen-origin NK cell activity were measured using the same procedures as described in Examples 1 and 2.

[1] = cited from earlier work

## CC1=C(/C=C/C(C)=C/C=C/C(C)=C/C=C/C=C(C)/C=C/C=C(C)/C=C/C2=C(C)C(=O)[C@@H](O)CC2(C)C)C(C)(C)C[C@H](O)C1=O [astaxanthin]
Antibody production
  antibody production activity: antibody production activity
P815 mastocytoma
  inhibition of promotion of cancer metastasis caused by stress: remarkable inhibition of promotion of cancer metastasis
Cancer cell
  cancer cell growth inhibitory activity: cancer cell growth inhibitory activity
Thymus weight; 0.04-5.0 mg/10 ml, FIG. 5
  inhibitory effect on decreases in thymus weight caused by stress loading: dose-dependent inhibitory effects
Thymus weight; FIG. 5, read-out: doses at which the effect on decreased thymus weight was significant
  minimal effective dose: ≥ 1 mg/kg
Thymus weight; suggested by thymus weight and NK cell activity, read-out: minimum effective dose of the anti-stress effect
  minimal effective dose: ~1 mg/kg
[1]
  oxidation and decomposition in air: easily oxidized and decompose relatively easily in air
